According to US8658604B2, “Template-fixed beta-hairpin peptidomimetics with protease inhibitory activity” (Polyphor Ltd, priority 2005, dated 2014):
Where two headings read alike, the source gives them in different places. Where a SMILES comes first, the peptide text is derived from it.

Columns and labels:
HELA cells (Acc57) = experiment: Cytotoxicity assay (MTT reduction), HELA cells; assay type: cell-based; conditions: Hela cells
Method in brief: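 HeLa cells were grown for 24 h, then exposed to peptides at 12.5, 25 and 50 μM in triplicate for 48 h at 37 °C. MTT reduction was read at 595 nm and growth % calculated relative to time-zero wells. LC50 interpolated by linear trend at −50% growth, GI50 at 50%.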

[1] = tested on: human red blood cells (hRBC); experiment: Hemolysis
Experimental: The peptides were tested for their hemolytic activity against human red blood cells (hRBC). Fresh hRBC were washed three times with phosphate buffered saline (PBS) by centrifugation for 10 min at 2000×g. Peptides at a concentration of 100 μM were incubated with 20% v/v hRBC for 1 hour at 37° C. The final erythrocyte concentration was approximately 0.9×10^9 cells per ml. A value of 0% and, respectively, 100% cell lysis was determined by incubation of the hRBC in the presence of PBS alone and, respectively, 0.1% Triton X-100 in H2O. […] The 100% lysis value (OD540H20) gave an OD540 of approximately 1.3-1.8. Percent hemolysis was calculated as follows: (OD540peptide/OD540H20)×100%.

[2] = biological target: Trypsin, from human pancreas (Homo sapiens, UniProt P07477); experiment: Enzymatic assay, trypsin; conditions: at 100 μM
Chymase, from human skin = biological target: T1, Chymase, from human skin (Homo sapiens, UniProt P23946); experiment: Enzymatic assay, chymase
T1 sequence (P23946 22-247): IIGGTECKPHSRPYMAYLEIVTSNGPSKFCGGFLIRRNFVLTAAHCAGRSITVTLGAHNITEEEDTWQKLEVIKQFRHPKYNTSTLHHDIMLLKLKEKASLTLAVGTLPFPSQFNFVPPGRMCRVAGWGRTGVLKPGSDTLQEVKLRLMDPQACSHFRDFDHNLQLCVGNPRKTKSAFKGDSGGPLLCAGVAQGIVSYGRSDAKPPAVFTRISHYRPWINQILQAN

[3] = biological target: T2, Elastase from human neutrophils (Homo sapiens, UniProt P08246); experiment: Enzymatic assay, elastase
T2 sequence (P08246 30-267): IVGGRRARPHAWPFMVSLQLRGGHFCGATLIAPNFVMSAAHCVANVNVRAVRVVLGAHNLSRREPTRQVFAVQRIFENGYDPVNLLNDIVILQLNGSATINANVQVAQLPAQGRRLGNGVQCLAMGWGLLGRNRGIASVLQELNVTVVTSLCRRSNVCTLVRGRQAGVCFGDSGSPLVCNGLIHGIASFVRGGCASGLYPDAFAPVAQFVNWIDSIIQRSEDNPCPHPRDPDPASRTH

[4] = tested on: Tryptase, from human lung; experiment: Enzymatic assay, tryptase; conditions: at 100 μM
[5] = biological target: T3, CathepsinG, from human neutrophils (Homo sapiens, UniProt P08311); experiment: Enzymatic assay, cathepsin G
T3 sequence (P08311 21-244): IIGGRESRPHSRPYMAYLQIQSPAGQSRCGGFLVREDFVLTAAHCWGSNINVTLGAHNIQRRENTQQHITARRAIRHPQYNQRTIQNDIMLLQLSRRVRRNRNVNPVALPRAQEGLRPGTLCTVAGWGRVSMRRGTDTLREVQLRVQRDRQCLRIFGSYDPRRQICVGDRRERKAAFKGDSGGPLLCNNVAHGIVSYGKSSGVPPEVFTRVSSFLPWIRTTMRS

[6] = biological target: Chymotrypsin, from human pancreas (Homo sapiens, UniProt P17538); experiment: Enzymatic assay, chymotrypsin
Chymotrypsin, from human pancreas, sequence (P17538 19-263): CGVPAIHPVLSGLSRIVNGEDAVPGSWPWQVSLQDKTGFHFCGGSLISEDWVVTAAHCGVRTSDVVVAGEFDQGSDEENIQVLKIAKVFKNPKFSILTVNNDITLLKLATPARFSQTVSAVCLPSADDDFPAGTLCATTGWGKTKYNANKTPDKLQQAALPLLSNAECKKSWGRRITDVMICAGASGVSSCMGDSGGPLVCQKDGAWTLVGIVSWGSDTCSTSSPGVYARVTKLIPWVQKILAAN

[7] = biological target: Thrombin, from Human Plasma (Homo sapiens, UniProt P00734); experiment: Enzymatic assay, thrombin
[8] = biological target: Urokinase from human urine (Homo sapiens, UniProt P00749); experiment: Enzymatic assay, urokinase
[9] = biological target: Coagulation Factor Xa, from uman plasma (Homo sapiens, UniProt P00742); experiment: Enzymatic assay, coagulation factor Xa
Coagulation Factor Xa, from uman plasma, sequence (P00742 235-488 limits assumed): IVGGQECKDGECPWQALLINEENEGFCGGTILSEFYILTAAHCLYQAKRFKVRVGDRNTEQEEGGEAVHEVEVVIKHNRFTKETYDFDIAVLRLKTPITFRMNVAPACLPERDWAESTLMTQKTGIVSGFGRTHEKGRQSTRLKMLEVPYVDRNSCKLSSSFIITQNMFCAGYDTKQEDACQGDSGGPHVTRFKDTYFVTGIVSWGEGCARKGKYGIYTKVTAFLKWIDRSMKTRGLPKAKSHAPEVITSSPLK
Coagulation Factor Xa, from uman plasma, sequence (P00742 41-179 limits assumed): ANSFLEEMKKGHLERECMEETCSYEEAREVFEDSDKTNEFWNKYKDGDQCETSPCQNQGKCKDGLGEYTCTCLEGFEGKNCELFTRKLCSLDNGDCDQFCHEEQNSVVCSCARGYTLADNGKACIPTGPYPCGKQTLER

CC[C@H](C)[C@@H]1NC(=O)[C@@H]2CCCN2C(=O)[C@H]2CCCN2C(=O)[C@H](CCCNC(=N)N)NC(=O)[C@@H]2CSSC[C@H](NC1=O)C(=O)N[C@@H]([C@@H](C)O)C(=O)N[C@@H](CCCCN)C(=O)N[C@@H](CO)C(=O)N[C@@H](CC(=O)O)C(=O)N1CCC[C@H]1C(=O)N1CCC[C@H]1C(=O)N[C@@H](CCC(N)=O)C(=O)N2 [Ex. 55] (HELM PEPTIDE1{I.C.T.K.S.D.P.P.Q.C.R.[dP].P}$PEPTIDE1,PEPTIDE1,2:R3-10:R3|PEPTIDE1,PEPTIDE1,1:R1-13:R2$$$V2.0)
Cytotoxicity LC50/GI50 Hela cells (HELA cells (Acc57)): 94 µM
Hemolysis at 100 μM % [1]: 0.1%
Trypsin at 100 μM % [2]: 90%
Chymase at 100 μM % (Chymase, from human skin): 27.6%
IC50 ([3]; read-out: Elastase IC50): > 100 µM
Tryptase at 100 μM % [4]: 90.4%
IC50 ([5]; read-out: Cathepsin G IC50): 0.055 µM
Chymotrypsin at 100 μM % [6]: 16%

CCCC[C@@H]1NC(=O)[C@@H]2CCCN2C(=O)[C@@H]2CCCN2C(=O)[C@H](CC(=O)O)NC(=O)[C@H](CO)NC(=O)[C@H](CCCCN)NC(=O)[C@H]([C@@H](C)O)NC(=O)[C@@H]2CSSC[C@H](NC1=O)C(=O)N[C@@H](CO)C(=O)N1CCC[C@@H]1C(=O)N1CCC[C@H]1C(=O)N[C@@H](Cc1ccccc1)C(=O)N2 [Ex. 15] (HELM PEPTIDE1{F.C.T.K.S.D.P.P.[Nle].C.S.[dP].P}$PEPTIDE1,PEPTIDE1,2:R3-10:R3|PEPTIDE1,PEPTIDE1,1:R1-13:R2$$$V2.0)
Cytotoxicity LC50/GI50 Hela cells (HELA cells (Acc57)): 100 µM
Hemolysis at 100 μM % [1]: 0%
Trypsin at 100 μM % [2]: 95.0%
Chymase at 100 μM % (Chymase, from human skin): 12.7%
IC50 ([3]; Elastase IC50): > 100 µM
IC50 ([5]; Cathepsin G IC50): 0.056 µM
Chymotrypsin at 100 μM % [6]: 54.2%

CC[C@H](C)[C@@H]1NC(=O)[C@@H]2CCCN2C(=O)[C@@H]2CCCN2C(=O)[C@H](CC(=O)O)NC(=O)[C@H](CO)NC(=O)[C@H](CCCCN)NC(=O)[C@H]([C@@H](C)O)NC(=O)[C@@H]2CSSC[C@H](NC1=O)C(=O)N[C@@H](Cc1ccc(O)cc1)C(=O)N1CCC[C@@H]1C(=O)N1CCC[C@H]1C(=O)N[C@@H](Cc1ccccc1)C(=O)N2 [Ex. 5] (HELM PEPTIDE1{F.C.T.K.S.D.P.P.I.C.Y.[dP].P}$PEPTIDE1,PEPTIDE1,2:R3-10:R3|PEPTIDE1,PEPTIDE1,1:R1-13:R2$$$V2.0)
Hemolysis at 100 μM % [1]: 0%
Trypsin at 100 μM % [2]: 92%
Chymase at 100 μM % (Chymase, from human skin): 0%
IC50 ([3]; Elastase IC50): > 100 µM
Thrombin at 100 μM % [7]: 0.5%
Tryptase at 100 μM % [4]: 74%
Urokinase at 100 μM % [8]: 5.7%
IC50 ([5]; Cathepsin G IC50): 0.056 µM
Chymotrypsin at 100 μM % [6]: 3%
FXa at 100 μM % [9]: 0.2%

CC[C@H](C)[C@@H]1NC(=O)[C@@H]2CCCN2C(=O)[C@H]2CCCN2C(=O)[C@H](CCCNC(=N)N)NC(=O)[C@@H]2CSSC[C@H](NC1=O)C(=O)N[C@@H]([C@@H](C)O)C(=O)N[C@@H](CCCCN)C(=O)N[C@@H](CO)C(=O)N[C@@H](CC(=O)O)C(=O)N1CCC[C@H]1C(=O)N1CCC[C@H]1C(=O)N[C@@H](Cc1ccc(O)cc1)C(=O)N2 [Ex. 18] (HELM PEPTIDE1{I.C.T.K.S.D.P.P.Y.C.R.[dP].P}$PEPTIDE1,PEPTIDE1,2:R3-10:R3|PEPTIDE1,PEPTIDE1,1:R1-13:R2$$$V2.0)
Cytotoxicity LC50/GI50 Hela cells (HELA cells (Acc57)): 100 µM
Hemolysis at 100 μM % [1]: 0%
Trypsin at 100 μM % [2]: 84%
Chymase at 100 μM % (Chymase, from human skin): 32.5%
IC50 ([3]; Elastase IC50): > 100 µM
Thrombin at 100 μM % [7]: 0%
Tryptase at 100 μM % [4]: 88.3%
IC50 ([5]; Cathepsin G IC50): 0.047 µM
Chymotrypsin at 100 μM % [6]: 25%

CC[C@H](C)[C@@H]1NC(=O)[C@H](CO)NC(=O)[C@H](C)NC(=O)[C@H]([C@@H](C)O)NC(=O)[C@@H]2CSSC[C@H](NC(=O)[C@H](CCC(N)=O)NC(=O)[C@@H]3CCCN3C(=O)[C@@H]3CCCN3C1=O)C(=O)N[C@@H](Cc1ccc(O)cc1)C(=O)N1CCC[C@@H]1C(=O)N1CCC[C@H]1C(=O)N[C@@H](CCc1ccccc1)C(=O)N2 [Ex. 103] (HELM PEPTIDE1{[O=C([C@H](CCc1ccccc1)N[*:1])[*:2]].C.T.A.S.I.P.P.Q.C.Y.[dP].P}$PEPTIDE1,PEPTIDE1,2:R3-10:R3|PEPTIDE1,PEPTIDE1,1:R1-13:R2$$$V2.0)
Cytotoxicity LC50/GI50 Hela cells (HELA cells (Acc57)): 47 µM
Trypsin at 100 μM % [2]: 6.4%
Chymase at 100 μM % (Chymase, from human skin): 0%
IC50 ([3]; Elastase IC50): 0.018 µM
Thrombin at 100 μM % [7]: 10.2%
Tryptase at 100 μM % [4]: 0.6%
Urokinase at 100 μM % [8]: 9.6%
IC50 ([5]; Cathepsin G IC50): > 100 µM
IC50 [6]: 4.31 µM
FXa at 100 μM % [9]: 3%

CCCC[C@@H]1NC(=O)[C@@H]2CCCN2C(=O)[C@@H]2CCCN2C(=O)[C@H](CC(=O)O)NC(=O)[C@H](CO)NC(=O)[C@H](CCCCN)NC(=O)[C@H]([C@@H](C)O)NC(=O)[C@@H]2CSSC[C@H](NC1=O)C(=O)N[C@@H](CO)C(=O)N1CCC[C@@H]1C(=O)N1CCC[C@H]1C(=O)N[C@@H](Cc1ccccc1)C(=O)N2 [Ex. 53] (HELM PEPTIDE1{F.C.T.K.S.D.P.P.[Nle].C.S.[dP].P}$PEPTIDE1,PEPTIDE1,2:R3-10:R3|PEPTIDE1,PEPTIDE1,1:R1-13:R2$$$V2.0)
Cytotoxicity LC50/GI50 Hela cells (HELA cells (Acc57)): 63 µM
Hemolysis at 100 μM % [1]: 0%
Trypsin at 100 μM % [2]: 95%
Chymase at 100 μM % (Chymase, from human skin): 12.7%
IC50 ([3]; read-out: Elastase IC50): > 100 µM
IC50 ([5]; read-out: Cathepsin G IC50): 0.056 µM
Chymotrypsin at 100 μM % [6]: 54%

CCCC[C@@H]1NC(=O)[C@@H]2CCCN2C(=O)[C@@H]2CCCN2C(=O)[C@H](CC(=O)O)NC(=O)[C@H](CO)NC(=O)[C@H](CCCCN)NC(=O)[C@H]([C@@H](C)O)NC(=O)[C@@H]2CSSC[C@H](NC1=O)C(=O)N[C@@H](CCCNC(=N)N)C(=O)N1CCC[C@@H]1C(=O)N1CCC[C@H]1C(=O)N[C@@H]([C@@H](C)CC)C(=O)N2 [Ex. 57] (HELM PEPTIDE1{I.C.T.K.S.D.P.P.[Nle].C.R.[dP].P}$PEPTIDE1,PEPTIDE1,2:R3-10:R3|PEPTIDE1,PEPTIDE1,1:R1-13:R2$$$V2.0)
Hemolysis at 100 μM % [1]: 0%
Trypsin at 100 μM % [2]: 94%
Chymase at 100 μM % (Chymase, from human skin): 26.9%
IC50 ([3]; read-out: Elastase IC50): > 100 µM
Thrombin at 100 μM % [7]: 11%
Tryptase at 100 μM % [4]: 82.2%
Urokinase at 100 μM % [8]: 4%
IC50 ([5]; read-out: Cathepsin G IC50): 0.041 µM
Chymotrypsin at 100 μM % [6]: 0%
FXa at 100 μM % [9]: 32%

CCCC[C@@H]1NC(=O)[C@@H]2CCCN2C(=O)[C@H]2CCCN2C(=O)[C@H](Cc2ccc3ccccc3c2)NC(=O)[C@@H]2CSSC[C@H](NC1=O)C(=O)N[C@@H]([C@@H](C)O)C(=O)N[C@@H](C)C(=O)N[C@@H](CO)C(=O)N[C@@H]([C@@H](C)CC)C(=O)N1CCC[C@H]1C(=O)N1CCC[C@H]1C(=O)N[C@@H](CCC(N)=O)C(=O)N2 [Ex. 95] (HELM PEPTIDE1{[Nle].C.T.A.S.I.P.P.Q.C.[O=C([C@H](Cc1ccc2ccccc2c1)N[*:1])[*:2]].[dP].P}$PEPTIDE1,PEPTIDE1,2:R3-10:R3|PEPTIDE1,PEPTIDE1,1:R1-13:R2$$$V2.0)
Cytotoxicity LC50/GI50 Hela cells (HELA cells (Acc57)): 89 µM
Trypsin at 100 μM % [2]: 8.9%
Chymase at 100 μM % (Chymase, from human skin): 0%
IC50 ([3]; Elastase IC50): 0.024 µM
Thrombin at 100 μM % [7]: 0%
Tryptase at 100 μM % [4]: 0%
Urokinase at 100 μM % [8]: 10.3%
IC50 ([5]; Cathepsin G IC50): 38.7 µM
IC50 [6]: 33.7 µM
FXa at 100 μM % [9]: 11.3%

CCCCCC[C@@H]1NC(=O)[C@@H]2CCCN2C(=O)[C@H]2CCCN2C(=O)[C@H](Cc2ccc(O)cc2)NC(=O)[C@@H]2CSSC[C@H](NC1=O)C(=O)N[C@@H]([C@@H](C)O)C(=O)N[C@@H](C)C(=O)N[C@@H](CO)C(=O)N[C@@H]([C@@H](C)CC)C(=O)N1CCC[C@H]1C(=O)N1CCC[C@H]1C(=O)N[C@@H](CCC(N)=O)C(=O)N2 [Ex. 99] (HELM PEPTIDE1{[CCCCCC[C@H](N[*:1])C(=O)[*:2]].C.T.A.S.I.P.P.Q.C.Y.[dP].P}$PEPTIDE1,PEPTIDE1,2:R3-10:R3|PEPTIDE1,PEPTIDE1,1:R1-13:R2$$$V2.0)
Cytotoxicity LC50/GI50 Hela cells (HELA cells (Acc57)): 58 µM
Trypsin at 100 μM % [2]: 30.5%
Chymase at 100 μM % (Chymase, from human skin): 0%
IC50 ([3]; Elastase IC50): 0.016 µM
Thrombin at 100 μM % [7]: 0%
Tryptase at 100 μM % [4]: 0%
Urokinase at 100 μM % [8]: 17.4%
IC50 ([5]; Cathepsin G IC50): 85.2 µM
IC50 [6]: 8.56 µM
FXa at 100 μM % [9]: 0%
